Several values for one entry are separate records, joined by “and”; a condition that tells them apart may be missing. Equal entries are not always repeated. Activity calls are given as the source filed them. No cut-off for these calls is given here.
Tests used:
[1] = test system: Trypanosoma brucei rhodesiense; experiment: Antitrypanosomal activity against Trypanosoma brucei rhodesiense STIB900 infected in NMRI mouse assessed as cure at 20 mg/kg, ip administered for 4 days; format: functional, organism-based; parameters: dose 20 mg/kg
[2] = Binding affinity to fish sperm DNA assessed as hypochromicity after 1 min by UV-Vis spectrophotometry; parameters: concentration or dose not given beside the values
[3] = Selectivity index, ratio of CC50 for rat L6 cells to IC50 for Plasmodium falciparum K1; format: functional
[4] = test system: Plasmodium falciparum; experiment: Antiprotozoal activity against intraerythrocytic stage of chloroquine/pyrimethamine-resistant Plasmodium falciparum K1 by [3H]hypoxanthine incorporation assay; format: functional, organism-based
[5] = test system: Leishmania donovani; experiment: Antiprotozoal activity against axenic amastigote stage of Leishmania donovani MHOM-ET-67/L82 by alamar-blue assay; format: functional, organism-based
[6] = test system: Hyperoartia; experiment: Binding affinity to fish sperm DNA by circular dichroism spectroscopy
[7] = test system: Trypanosoma brucei rhodesiense; experiment: Antiprotozoal activity against bloodstream form of Trypanosoma brucei rhodesiense STIB900 trypomastigote by alamar-blue assay; format: functional, organism-based
[8] = test system: Trypanosoma cruzi; experiment: Antiprotozoal activity against intracellular amastigote stage of Trypanosoma cruzi Tulahuen C4 by colorimetric assay; format: functional, organism-based
[9] = (§1) Cytotoxicity against rat L6 cells; format: cell-based; conditions: L6 cells
[10] = test system: Plasmodium falciparum; experiment: Antiprotozoal activity against intraerythrocytic stage of chloroquine-sensitive Plasmodium falciparum NF54 by [3H]hypoxanthine incorporation assay; format: functional, organism-based
[11] = Selectivity index, ratio of CC50 for rat L6 cells to IC50 for bloodstream form of Trypanosoma brucei rhodesiense STIB900; format: functional
[12] = Selectivity index, ratio of CC50 for rat L6 cells to IC50 for Plasmodium falciparum NF54; format: functional
[13] = test system: Trypanosoma brucei rhodesiense; experiment: Antitrypanosomal activity against Trypanosoma brucei rhodesiense STIB900 infected in NMRI mouse assessed as time duration by measuring mean day of relapse at 20 mg/kg, ip administered for 4 days; format: functional; conditions: route intraperitoneal
[14] = test system: Trypanosoma brucei rhodesiense; experiment: Antitrypanosomal activity against Trypanosoma brucei rhodesiense STIB900 infected in NMRI mouse assessed as time duration by measuring mean day of relapse at 50 mg/kg, po administered for 4 days; format: functional
[15] = test system: Trypanosoma brucei rhodesiense; experiment: Antitrypanosomal activity against Trypanosoma brucei rhodesiense STIB900 infected in NMRI mouse assessed as cure at 50 mg/kg, po administered for 4 days; format: functional, organism-based; parameters: dose 50 mg/kg
[16] = test system: Hyperoartia; experiment: Binding affinity to fish sperm DNA assessed as reduction in positive band at compound/DNA ratio 1 to 2 by circular dichroism spectroscopy
[17] = test system: Trypanosoma brucei rhodesiense; experiment: Antitrypanosomal activity against Trypanosoma brucei rhodesiense STIB900 infected in NMRI mouse assessed as cure at 5 mg/kg, ip administered for 4 days; format: functional, organism-based; parameters: dose 5 mg/kg
[18] = test system: Hyperoartia; experiment: Binding affinity to fish sperm DNA assessed as positive band of unvarying intensity at compound/DNA ratio 0.5 to 0.6 by circular dichroism spectroscopy
[19] = test system: Hyperoartia; experiment: Binding affinity to fish sperm DNA assessed as weak negative band at compound/DNA ratio 1 to 2 by circular dichroism spectroscopy
[20] = test system: L6; experiment: as §1; format: cell-based; conditions: l6
[21] = test system: Mus musculus; experiment: Toxicity in NMRI mouse infected with Trypanosoma brucei rhodesiense STIB900 at 20 mg/kg, ip administered for 4 days; format: organism-based; parameters: dose 20 mg/kg, route intraperitoneal; conditions: in vivo, 96 h
[22] = test system: Trypanosoma brucei rhodesiense; experiment: Antitrypanosomal activity against Trypanosoma brucei rhodesiense STIB900 infected in NMRI mouse assessed as time duration by measuring mean day of relapse at 5 mg/kg, ip administered for 4 days; format: functional; conditions: route intraperitoneal

| Compound | Activity [2] | IC50 [4] [µM] | IC50 [5] [µM] | IC50 ([7]; Trypanosoma brucei, STIB900) [µM] | IC50 [8] [µM] | CC50 [9] [µM] | Ratio CC50/IC50 [11] | other results |
| --- | --- | --- | --- | --- | --- | --- | --- | --- |
| O=C(O)C(F)(F)F.O=C(O)C(F)(F)F.O=C1c2ccc(NC3=NCCN3)cc2C(=O)c2ccc(NC3=NCCN3)cc21 | 46% | 0.06 | 145 | 2.3 | 104 | 75 | – | Activity [1]: Active; Ratio CC50/IC50 [3]: 1229; Activity [6]: Active |
| Nc1ccc2[nH]c3ccc(N)cc3c(=O)c2c1 | – | 2.5 | 321 | 2.9 | 149 | 75 | – | – |
| Nc1cccc(Nc2ccc([N+](=O)[O-])cc2C(=O)O)c1 | – | 70 | 61 | 124 | 271 | 266 | – | – |
| Nc1ccc2[nH]c3ccc([N+](=O)[O-])cc3c(=O)c2c1 | – | 49 | 77 | 19.5 | 287 | 186 | – | – |
| Cn1c2ccc(NC3=NCCN3)cc2c(=O)c2ccc(NC3=NCCN3)cc21.O=C(O)C(F)(F)F.O=C(O)C(F)(F)F | 50% | – | – | 0.008 | – | 98 | 12287 | IC50 ([10]; Plasmodium falciparum, NF54): 0.56 µM; Ratio CC50/IC50 [12]: 175 |
| CC(C)(C)OC(=O)N1CCN(C(=O)OC(C)(C)C)C1=Nc1ccc2[nH]c3ccc(N=C4N(C(=O)OC(C)(C)C)CCN4C(=O)OC(C)(C)C)cc3c(=O)c2c1 | – | 33 | > 127 | 2.2 | 50 | 73 | – | – |
| Cl.Cl.O=c1c2ccc(NC3=NCCN3)cc2[nH]c2ccc(NC3=NCCN3)cc12 | 47% | – | 73 | 0.007 | > 230 | 107 | 15257 | Time [13]: >50 days; Activity [1]: Active; Activity [6]: Active; IC50 ([10]; Plasmodium falciparum, NF54): 0.83 µM; Ratio CC50/IC50 [12]: 128 |
| Nc1ccc2c(=O)c3cc([N+](=O)[O-])ccc3[nH]c2c1 | – | 34 | 291 | 67 | 279 | 147 | – | – |
| Nc1ccc(Nc2ccc([N+](=O)[O-])cc2C(=O)O)cc1 | – | 52 | 23 | 55 | 292 | > 365 | – | – |
| Nc1ccc2c(=O)c3cc(N)ccc3[nH]c2c1 | – | 4.8 | 288 | 19.2 | 269 | 23 | – | – |
| Cl.Cl.O=c1c2cc(NC3=NCCN3)ccc2[nH]c2ccc(NC3=NCCN3)cc12 | 49% | 0.34 | 177 | 0.069 | > 230 | > 230 | >3333 | Time [13]: >45.5 days; Activity [1]: Active; Ratio CC50/IC50 [3]: >666; Time [14]: 22 days; Activity [15]: inactive |
| Cn1c2ccc(NC3=NCCN3)cc2c(=O)c2cc(NC3=NCCN3)ccc21.O=C(O)C(F)(F)F.O=C(O)C(F)(F)F | 48% | – | – | 0.007 | – | 104 | 14843 | IC50 ([10]; Plasmodium falciparum, NF54): 0.22 µM; Ratio CC50/IC50 [12]: 468 |
| O=c1c2ccc(NC3=NCCN3)cc2[nH]c2cc(NC3=NCCN3)ccc12 | 40% and 35% | – | – | – | – | – | – | Activity [16]: Active; Activity [17]: inactive; Activity [18]: Active; Activity [6]: Active; Activity [19]: Active |
| O=C(O)C(F)(F)F.O=C(O)C(F)(F)F.O=c1c2ccc(NC3=NCCN3)cc2[nH]c2cc(NC3=NCCN3)ccc12 | – | – | – | 0.06 | – | – | 1647 | IC50 [10]: 0.09 µM; Ratio CC50/IC50 [12]: 1149; CC50 [20]: 99 µM |
| CCCCCCCCCCCCCCCCOP(=O)([O-])OCC[N+](C)(C)C [MILTEFOSINE] | – | – | 0.45 | – | – | – | – | – |
| COc1cc([C@@H]2c3cc4c(cc3[C@H](O)[C@H]3COC(=O)[C@H]23)OCO4)cc(OC)c1OC [PODOFILOX] | – | – | – | – | – | 0.012 | – | – |
| Cl.Cl.O=c1c2ccc(NC3=NCCN3)cc2[nH]c2cc(NC3=NCCN3)ccc12 | – | – | 113 | – | > 230 | 137 | 2210 | Activity [21]: Non-toxic; IC50 [10]: 0.25 µM; IC50 [7]: 0.062 µM; Ratio CC50/IC50 [12]: 546; Time [22]: 14 days |

Source: ChEMBL document CHEMBL3414460, “Antiprotozoal activity and DNA binding of dicationic acridones” (J Med Chem, 2015)
